One assay has as its target E. coli PBP3 (Escherichia coli (strain K12), UniProt P0AD68). Kind of assay: E. coli PBP3 Bocillin-FL fluorescence polarization competition binding assay. The essentials:
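Purified PBP (1.5 μM final) was combined with test compound (0–1000 μM) and Bocillin-FL (fluorescent penicillin V, 0.1 μM final) in 50 mM Hepes pH 8.0, 300 mM NaCl, 5% glycerol.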
On the technique in general: Polarisation of emitted light reports the rotation of a fluorescent probe.

Another assay relates to E. coli D22. Kind of assay: microbe, parasite or virus in culture. It counts as cell-based. Conditions: Escherichia coli; hyper-permeable E. coli D22, broth microdilution; read-out: MIC E. coli D22. The essentials: (§1)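 MIC = lowest concentration showing no visible growth after 16-20 h at 37° C. Cation-adjusted MH broth, 2-fold serial dilutions, starting inoculum 5×10^5 CFU/mL, per CLSI methods.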
Background: In broth dilution the organism is exposed to a series of concentrations in liquid medium.

A further assay has as its system K. pneumoniae SI-117. Kind of assay: microbe, parasite or virus in culture. Format: cell-based. Conditions: Klebsiella pneumoniae, SI117, read-out: MIC K. pneumoniae SI-117. An outline of the steps: as §1
A further assay concerns K. pneumoniae UMM. Put plainly: microbe, parasite or virus in culture. The conditions noted are these: Klebsiella pneumoniae; K. pneumoniae UMM producing SHV-5 and KPC-2; read-out: MIC K. pneumoniae UMM. Format: cell-based. The essentials: as §1
The next assay relates to E. coli 901C. Put plainly: microbe, parasite or virus in culture. Format: cell-based. The conditions noted are these: Escherichia coli; hyper-permeable E. coli 901C, broth microdilution; read-out: MIC E. coli 901C. The essentials:
as §1

A further assay relates to E. coli AG100A. Put plainly: microbe, parasite or virus in culture. It counts as cell-based. The conditions noted are these: Escherichia coli, read-out: MIC E. coli AG100A. The essentials: as §1
For a further assay, the system named is N. gonorrhoeae FA19. Put plainly: Liquid broth MIC, N. gonorrhoeae FA19. It counts as cell-based. Conditions: Neisseria gonorrhoeae; N. gonorrhoeae FA19, liquid broth; read-out: Minimum Inhibitory Concentration, N. gonorrhoeae FA19. The essentials:
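Visual MIC: lowest concentration well showing no bacterial growth after 40-42 h at 36° C in 5% CO2. Inoculum 5×10^5 CFU/mL from colonies swabbed into GC broth, set by OD600; compounds in 2-fold serial dilution.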

Where [1] appears, read: fluorescence polarization competition binding with Bocillin-FL, read-out: E. coli K12 PBP3 Potency.

Converted amounts (≈) assume the structure as drawn. Where two headings read alike, the source gives them in different places. A value given as a limit tells only on which side of the number the result lay.

Sequence of E. coli PBP3 (P0AD68 whole entry): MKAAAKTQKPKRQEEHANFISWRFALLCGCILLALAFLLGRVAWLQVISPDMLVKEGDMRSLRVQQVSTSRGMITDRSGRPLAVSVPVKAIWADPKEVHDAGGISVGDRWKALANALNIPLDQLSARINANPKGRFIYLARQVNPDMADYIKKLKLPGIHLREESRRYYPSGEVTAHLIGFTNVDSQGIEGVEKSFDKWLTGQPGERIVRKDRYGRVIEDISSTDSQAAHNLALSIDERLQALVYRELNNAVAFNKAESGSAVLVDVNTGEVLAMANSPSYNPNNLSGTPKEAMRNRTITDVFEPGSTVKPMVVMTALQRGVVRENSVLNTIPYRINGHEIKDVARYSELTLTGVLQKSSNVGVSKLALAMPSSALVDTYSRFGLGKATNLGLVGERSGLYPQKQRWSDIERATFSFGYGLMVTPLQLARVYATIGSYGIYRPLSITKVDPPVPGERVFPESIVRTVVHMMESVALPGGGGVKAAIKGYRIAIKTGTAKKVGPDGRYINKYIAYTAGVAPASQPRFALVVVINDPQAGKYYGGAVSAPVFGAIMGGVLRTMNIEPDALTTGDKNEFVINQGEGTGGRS

For `CCN1CCN(C(=O)NC(C(=O)N[C@H]2Cc3cccc(C(=O)[O-])c3OB2O)c2ccc[n+](CC(N)=O)c2)C(=O)C1=O` (stereo partly drawn) [Example 107, (3R)-3-(2-(1-(2-amino-2-oxoethyl)pyridin-1-ium-3-yl)-2-(4-ethyl-2,3-dioxopiperazine-1-carboxamido)acetamido)-2-hydroxy-3,4-dihydro-2H-benzo[e][1,2]oxaborinine-8-carboxylate], the EC50 at E. coli PBP3 (setting [1]) is greater than 500 µM. In addition, the MIC was in the range of 32 to 64 µg/mL with E. coli D22; 32 to 64 µg/mL in the assay on K. pneumoniae SI-117; 32 to 64 µg/mL with K. pneumoniae UMM; 8 to 16 µg/mL with E. coli 901C; 8 to 16 µg/mL with E. coli AG100A.
As to `CCN1CCN(C(=O)NC(C(=O)N[C@H]2Cc3cccc(C(=O)O)c3OB2O)c2cc(O)c(O)cc2F)C(=O)C1=O` (stereo partly drawn) [Example 90, (3R)-3-(2-(4-ethyl-2,3-dioxopiperazine-1-carboxamido)-2-(2-fluoro-4,5-dihydroxyphenyl)acetamido)-2-hydroxy-3,4-dihydro-2H-benzo[e][1,2]oxaborinine-8-carboxylic acid], the EC50 on E. coli PBP3 (setting [1]) was less than 30 µM. Moreover, the MIC is 8 to 16 µg/mL with E. coli D22; greater than 128 µg/mL in the assay on K. pneumoniae SI-117; 8 to 16 µg/mL in the assay on K. pneumoniae UMM; 0.5 to 1 µg/mL in the assay on E. coli 901C; 2 to 4 µg/mL in the assay on E. coli AG100A.
As to `O=C(O)c1cccc2c1OB(O)[C@@H](NC(=O)C(NC(=O)N1CCN(CCF)C(=O)C1=O)c1ccc(O)c(O)c1Cl)C2` (stereo partly drawn) [Example 71, (3R)-3-(2-(2-chloro-3,4-dihydroxyphenyl)-2-(4-(2-fluoroethyl)-2,3-dioxopiperazine-1-carboxamido)acetamido)-2-hydroxy-3,4-dihydro-2H-benzo[e][1,2]oxaborinine-8-carboxylic acid], the EC50 on E. coli PBP3 (setting [1]) was less than 30 µM. Moreover, the MIC with K. pneumoniae UMM was 32 to 64 µg/mL; in the assay with E. coli 901C it was 0.5 to 1 µg/mL; in the assay on E. coli AG100A, 2 to 4 µg/mL.
Turning to `CCN1CCN(C(=O)NC(C(=O)N[C@H]2Cc3cccc(C(=O)O)c3OB2O)c2cccs2)C(=O)C1=O` (stereo partly drawn) [Example 115, (3R)-3-(2-(4-ethyl-2,3-dioxopiperazine-1-carboxamido)-2-(thiophen-2-yl)acetamido)-2-hydroxy-3,4-dihydro-2H-benzo[e][1,2]oxaborinine-8-carboxylic acid], the EC50 on E. coli PBP3 (setting [1]) was less than 30 µM. Further, the MIC in the assay with E. coli D22 is 8 to 16 µg/mL; with K. pneumoniae SI-117, 32 to 64 µg/mL; with K. pneumoniae UMM, 32 to 64 µg/mL; with E. coli 901C it was less than 0.25 µg/mL; in the assay with E. coli AG100A, 2 to 4 µg/mL.
Consider `CCN1CCN(C(=O)NC(C(=O)N[C@H]2Cc3cccc(C(=O)O)c3OB2O)c2cccc(O)n2)C(=O)C1=O` (stereo partly drawn) [Example 117, (3R)-3-(2-(4-ethyl-2,3-dioxopiperazine-1-carboxamido)-2-(6-hydroxypyridin-2-yl)acetamido)-2-hydroxy-3,4-dihydro-2H-benzo[e][1,2]oxaborinine-8-carboxylic acid], for which the EC50 on E. coli PBP3 was in the range of 30 to 500 µM. The MIC is 8 to 16 µg/mL with E. coli D22; greater than 128 µg/mL in the assay on K. pneumoniae SI-117; 32 to 64 µg/mL in the assay on K. pneumoniae UMM; 0.5 to 1 µg/mL with E. coli 901C; 2 to 4 µg/mL with E. coli AG100A.
In the case of `CCN1CCN(C(=O)NC(C(=O)N[C@H]2Cc3cccc(C(=O)O)c3OB2O)c2ccc(O)cc2)C(=O)C1=O` (stereo partly drawn) [Example 27, (3R)-3-(2-(4-ethyl-2,3-dioxopiperazine-1-carboxamido)-2-(4-hydroxyphenyl)acetamido)-2-hydroxy-3,4-dihydro-2H-benzo[e][1,2]oxaborinine-8-carboxylic acid], on E. coli PBP3, the EC50 fell in the range of 30 to 500 µM. For the same compound, the MIC in the assay on E. coli D22 was in the range of 8 to 16 µg/mL; in the assay with K. pneumoniae SI-117, 32 to 64 µg/mL; with K. pneumoniae UMM, 32 to 64 µg/mL; in the assay on E. coli 901C, 0.5 to 1 µg/mL; in the assay on E. coli AG100A, 2 to 4 µg/mL.
Consider `CCN1CCN(C(=O)NC(C(=O)N[C@H]2Cc3cccc(C(=O)O)c3OB2O)c2cccc(N)n2)C(=O)C1=O` (stereo partly drawn) [Example 104, (3R)-3-(2-(6-aminopyridin-2-yl)-2-(4-ethyl-2,3-dioxopiperazine-1-carboxamido)acetamido)-2-hydroxy-3,4-dihydro-2H-benzo[e][1,2]oxaborinine-8-carboxylic acid], for which, at E. coli PBP3 (setting [1]), the EC50 was less than 30 µM. Further, the MIC was 2 to 4 µg/mL in the assay with E. coli D22; 32 to 64 µg/mL in the assay on K. pneumoniae SI-117; 32 to 64 µg/mL in the assay on K. pneumoniae UMM; less than 0.25 µg/mL in the assay on E. coli 901C; 0.5 to 1 µg/mL with E. coli AG100A.
With `CCN1CCN(C(=O)NC(C(=O)N[C@H]2Cc3cc(F)cc(C(=O)O)c3OB2O)c2csc(N)n2)C(=O)C1=O` (stereo partly drawn) [Example 16, (3R)-3-(2-(2-aminothiazol-4-yl)-2-(4-ethyl-2,3-dioxopiperazine-1-carboxamido)acetamido)-6-fluoro-2-hydroxy-3,4-dihydro-2H-benzo[e][1,2]oxaborinine-8-carboxylic acid], at E. coli PBP3, the EC50 is 30 to 500 µM. Moreover, the MIC in the assay with E. coli D22 lay within 8 to 16 µg/mL; in the assay on K. pneumoniae SI-117 it was 32 to 64 µg/mL; in the assay on K. pneumoniae UMM, 32 to 64 µg/mL; in the assay on E. coli 901C it was 0.5 to 1 µg/mL; in the assay on E. coli AG100A, 2 to 4 µg/mL.
Regarding `CCN1CCN(C(=O)N[C@@H](C(=O)N[C@H]2Cc3ccc(F)c(C(=O)O)c3OB2O)[C@@H](C)O)C(=O)C1=O` [Example 110, (R)-3-((2R,3R)-2-(4-ethyl-2,3-dioxopiperazine-1-carboxamido)-3-hydroxybutanamido)-7-fluoro-2-hydroxy-3,4-dihydro-2H-benzo[e][1,2]oxaborinine-8-carboxylic acid], the EC50 on E. coli PBP3 lay in the range of 30 to 500 µM. For the same compound, the MIC with E. coli D22 lay within 8 to 16 µg/mL; in the assay on K. pneumoniae SI-117, 8 to 16 µg/mL; in the assay with K. pneumoniae UMM it was 8 to 16 µg/mL; with E. coli 901C it was 2 to 4 µg/mL; in the assay on E. coli AG100A, 8 to 16 µg/mL.
For the compound `NS(=O)(=O)c1ccc(C(NC(=O)N2CCN(CCF)C(=O)C2=O)C(=O)N[C@H]2Cc3cccc(C(=O)O)c3OB2O)cc1` (stereo partly drawn) [Example 103, (3R)-3-(2-(4-(2-fluoroethyl)-2,3-dioxopiperazine-1-carboxamido)-2-(4-sulfamoylphenyl)acetamido)-2-hydroxy-3,4-dihydro-2H-benzo[e][1,2]oxaborinine-8-carboxylic acid], the EC50 on E. coli PBP3 (setting [1]) was less than 30 µM. For the same compound, the MIC was 1 to 2 µg/mL (≈ 1.65 to 3.3 µM) in the assay with N. gonorrhoeae FA19, 32 to 64 µg/mL with K. pneumoniae UMM, less than 0.25 µg/mL in the assay with E. coli 901C and 2 to 4 µg/mL with E. coli AG100A.
Consider `CCN1CCN(C(=O)NC(C(=O)N[C@H]2Cc3cccc(C(=O)O)c3OB2O)c2cnc(O)cn2)C(=O)C1=O` (stereo partly drawn) [Example 121, (3R)-3-(2-(4-ethyl-2,3-dioxopiperazine-1-carboxamido)-2-(5-hydroxypyrazin-2-yl)acetamido)-2-hydroxy-3,4-dihydro-2H-benzo[e][1,2]oxaborinine-8-carboxylic acid], for which, on E. coli PBP3, the EC50 fell in the range of 30 to 500 µM. Moreover, the MIC in the assay with E. coli D22 is 8 to 16 µg/mL; in the assay with K. pneumoniae SI-117 it was 32 to 64 µg/mL; in the assay with K. pneumoniae UMM, 8 to 16 µg/mL; in the assay on E. coli 901C, 0.5 to 1 µg/mL; in the assay with E. coli AG100A, 2 to 4 µg/mL.
With `CCCN1CCN(C(=O)NC(C(=O)N[C@H]2Cc3cccc(C(=O)O)c3OB2O)c2ccc(O)c(O)c2Cl)C(=O)C1=O` (stereo partly drawn) [Example 82, (3R)-3-(2-(2-chloro-3,4-dihydroxyphenyl)-2-(2,3-dioxo-4-propylpiperazine-1-carboxamido)acetamido)-2-hydroxy-3,4-dihydro-2H-benzo[e][1,2]oxaborinine-8-carboxylic acid], the EC50 on E. coli PBP3 (setting [1]) was less than 30 µM. The MIC was 2 to 4 µg/mL with E. coli D22; 32 to 64 µg/mL with K. pneumoniae SI-117; 32 to 64 µg/mL in the assay with K. pneumoniae UMM; 2 to 4 µg/mL with E. coli 901C; 2 to 4 µg/mL in the assay with E. coli AG100A.
`CCN1CCN(C(=O)NC(C(=O)N[C@H]2Cc3cccc(C(=O)O)c3OB2O)c2cnc(N)s2)C(=O)C1=O` (stereo partly drawn) [Example 51, (3R)-3-(2-(2-aminothiazol-5-yl)-2-(4-ethyl-2,3-dioxopiperazine-1-carboxamido)acetamido)-2-hydroxy-3,4-dihydro-2H-benzo[e][1,2]oxaborinine-8-carboxylic acid] gave an EC50 on E. coli PBP3 of 30 to 500 µM. In addition, the MIC in the assay with K. pneumoniae UMM fell in the range of 32 to 64 µg/mL; with E. coli 901C, 0.5 to 1 µg/mL; in the assay with E. coli AG100A, 8 to 16 µg/mL.
For `CCN1CCN(C(=O)NC(C(=O)N[C@H]2Cc3cccc(C(=O)O)c3OB2O)c2ccc(O)cc2F)C(=O)C1=O` (stereo partly drawn) [Example 87, (3R)-3-(2-(4-ethyl-2,3-dioxopiperazine-1-carboxamido)-2-(2-fluoro-4-hydroxyphenyl)acetamido)-2-hydroxy-3,4-dihydro-2H-benzo[e][1,2]oxaborinine-8-carboxylic acid], the EC50 at E. coli PBP3 (setting [1]) was less than 30 µM. In the assay with N. gonorrhoeae FA19, the MIC was 4 to 8 µg/mL (≈ 7.38 to 14.8 µM).
Regarding `CCN1CCN(C(=O)NC(C(=O)N[C@H]2Cc3cccc(C(=O)O)c3OB2O)c2ccc(O)c(O)c2Cl)C(=O)C1=O` (stereo partly drawn) [Example 37, (3R)-3-(2-(2-chloro-3,4-dihydroxyphenyl)-2-(4-ethyl-2,3-dioxopiperazine-1-carboxamido)acetamido)-2-hydroxy-3,4-dihydro-2H-benzo[e][1,2]oxaborinine-8-carboxylic acid], at E. coli PBP3 (setting [1]), the EC50 was less than 30 µM. The MIC in the assay with N. gonorrhoeae FA19 was 4 to 8 µg/mL (≈ 6.96 to 13.9 µM); in the assay on K. pneumoniae UMM it was 8 to 16 µg/mL; in the assay with E. coli 901C it was 0.5 to 1 µg/mL; in the assay on E. coli AG100A it was 2 to 4 µg/mL.

The values are drawn from patent publication US12173018B2, “Penicillin-binding protein inhibitors” (priority 2018, dated 2024).
